According to ChEMBL document CHEMBL3120136 (J Med Chem, 2014):
*1 amine or outer side, *2 acyl side, *3 side chain or, on linkers, in order; H or OH if unused. Where a SMILES comes first, the peptide text is derived from it. Side-chain parts run from the residue outwards. [ ]: non-standard residue; d: D form. The star is where a group is joined. Ac3c(1R,2S-2-vinyl) = C=C[C@@H]1C[C@]1(N)C(=O)O; NH(1-naphthylmethyl) = c1ccc2c(CN*)cccc2c1; NH(1-naphthyl) = c1ccc2c(N*)cccc2c1; Hyp = O=C(O)[C@@H]1C[C@@H](O)CN1; Chg = N[C@H](C(=O)O)C1CCCCC1; X2 = c1ccc(C2CN(*)CCO2)cc1; X3 = c1ccc(C2CCN(*)C2)cc1; Morpholide = C1CN(*)CCO1; Piperidide = C1CCN(*)CC1; Pyrrolidide = C1CCN(*)C1; X4 = c1ccc(C2COCCN2*)cc1; X5 = c1ccc2c(c1)CN(*)C2; X1 = c1ccc2c(c1)CCN2*; CO = O=C([*:1])[*:2]; Carbamoyl = NC(=O)*

Tests used:
Hepatitis C virus = test: Antiviral activity against Hepatitis C virus infected in human HuH7 cells assessed as inhibition of HCV subgenomic replicon replication after 72 hrs by ELISA; format: functional, organism-based, Hepacivirus hominis, Huh-7; conditions: Hepatitis C virus, Huh-7, 72 h; read-out: EC50
[1] = Inhibition of Hepatitis C virus full-length NS3/4A protease assessed as quenched-fluorogenic RET-S1 substrate cleavage incubated for 10 mins prior to substrate addition by FRET analysis; design: species or system Hepacivirus hominis

O=C(N[C@H]1CCCCC/C=C\[C@@H]2C[C@@]2(C(=O)NS(=O)(=O)C2CC2)NC(=O)[C@@H]2C[C@@H](OC(=O)N3Cc4ccccc4C3)CN2C1=O)OCCF
EC50 (Hepatitis C virus): 54 nM | IC50 [1]: 1.5 nM

O=C(N[C@H]1CCCCC/C=C\[C@@H]2C[C@@]2(C(=O)NS(=O)(=O)C2CC2)NC(=O)[C@@H]2C[C@@H](OC(=O)N3Cc4ccccc4C3)CN2C1=O)OC1CCCC1
EC50 (Hepatitis C virus): 4 nM | IC50 [1]: 1 nM

CC(C)(C)OC(=O)N[C@H]1CCCC(F)(F)C/C=C\[C@@H]2C[C@@]2(C(=O)NS(=O)(=O)C2CC2)NC(=O)[C@@H]2C[C@@H](OC(=O)N3Cc4cccc(F)c4C3)CN2C1=O
EC50 (Hepatitis C virus): 44 nM | IC50 [1]: 0.5 nM

C=C[C@@H]1C[C@]1(NC(=O)[C@@H]1C[C@@H](OC(N)=O)CN1C(=O)[C@@H](NC(=O)[C@@H](NC(C)=O)C1CCCCC1)C(C)C)C(=O)O (Ac-[Chg]V[Hyp](Carbamoyl)[Ac3c(1R,2S-2-vinyl)]-OH)
EC50 (Hepatitis C virus): > 10000 nM | IC50 [1]: 200 nM

CC(C)(C)OC(=O)N[C@H]1COCCCCC[C@@H]2C[C@@]2(C(=O)NS(=O)(=O)C2CC2)NC(=O)[C@@H]2C[C@@H](OC(=O)N3Cc4cccc(F)c4C3)CN2C1=O
EC50 (Hepatitis C virus): 12.4 nM | IC50 [1]: 1.2 nM

N[C@H]1CCCCC/C=C\[C@@H]2C[C@@]2(C(=O)NS(=O)(=O)C2CC2)NC(=O)[C@@H]2C[C@@H](OC(=O)N3Cc4cccc(Cl)c4C3)CN2C1=O
EC50 (Hepatitis C virus): 150 nM | IC50 [1]: 3 nM

CC(C)(C)OC(=O)N[C@H]1CCCCC/C=C\[C@@H]2C[C@@]2(C(=O)NS(=O)(=O)C2CC2)NC(=O)[C@@H]2C[C@@H](OC(=O)N3Cc4cccc(Br)c4C3)CN2C1=O
EC50 (Hepatitis C virus): 49 nM | IC50 [1]: 1.1 nM

COc1ccc(NS(=O)(=O)NC(=O)[C@@]23C[C@H]2/C=C\CCCCC[C@H](NC(=O)OC(C)(C)C)C(=O)N2C[C@H](OC(=O)N4Cc5ccccc5C4)C[C@H]2C(=O)N3)cc1
EC50 (Hepatitis C virus): 184 nM | IC50 [1]: 11 nM

CC(C)(C)OC(=O)N[C@H]1CCCCC/C=C\[C@@H]2C[C@@]2(C(=O)NS(=O)(=O)C2CC2)NC(=O)[C@@H]2C[C@@H](OC(=O)N3CCc4c(F)cccc4C3)CN2C1=O
EC50 (Hepatitis C virus): 12 nM | IC50 [1]: 0.7 nM

C=C[C@@H]1C[C@]1(NC(=O)[C@@H]1C[C@@H](OC(=O)N2Cc3ccccc3C2)CN1C(=O)[C@@H](NC(=O)[C@@H](NC(C)=O)C1CCCCC1)C(C)C)C(=O)O (Ac-[Chg]V[Hyp]([CO-X5])[Ac3c(1R,2S-2-vinyl)]-OH)
IC50 [1]: 186 nM

CC(C)(C)OC(=O)N[C@H]1CCCCC/C=C\[C@@H]2C[C@@]2(C(=O)O)NC(=O)[C@@H]2C[C@@H](OC(=O)N3Cc4ccc(Cl)cc4C3)CN2C1=O
EC50 (Hepatitis C virus): 3160 nM | IC50 [1]: 110 nM

CC(C)(C)OC(=O)N[C@H]1CCCCC/C=C\[C@@H]2C[C@@]2(C(=O)NS(=O)(=O)Nc2ccc(C(F)(F)F)cc2)NC(=O)[C@@H]2C[C@@H](OC(=O)N3Cc4ccccc4C3)CN2C1=O
EC50 (Hepatitis C virus): 70 nM | IC50 [1]: 9.8 nM

C=C[C@@H]1C[C@]1(NC(=O)[C@@H]1C[C@@H](OC(=O)N2CCCC2)CN1C(=O)[C@@H](NC(=O)[C@@H](NC(C)=O)C1CCCCC1)C(C)C)C(=O)O (Ac-[Chg]V[Hyp]([CO-Pyrrolidide])[Ac3c(1R,2S-2-vinyl)]-OH)
IC50 [1]: 14900 nM

O=C(NC1CCCC1)N[C@H]1CCCCC/C=C\[C@@H]2C[C@@]2(C(=O)NS(=O)(=O)C2CC2)NC(=O)[C@@H]2C[C@@H](OC(=O)N3Cc4ccccc4C3)CN2C1=O
EC50 (Hepatitis C virus): 26 nM | IC50 [1]: 0.7 nM

CC(C)(C)OC(=O)N[C@H]1CCCCC/C=C\[C@@H]2C[C@@]2(C(=O)NS(=O)(=O)C2CC2)NC(=O)[C@@H]2C[C@@H](NC(=O)c3sc4cccc(Cl)c4c3Cl)CN2C1=O
EC50 (Hepatitis C virus): 9.5 nM | IC50 [1]: 1.4 nM

C=C[C@@H]1C[C@]1(NC(=O)[C@@H]1C[C@@H](OC(=O)N2CCC(c3ccccc3)C2)CN1C(=O)[C@@H](NC(=O)[C@@H](NC(C)=O)C1CCCCC1)C(C)C)C(=O)O (stereo partly drawn) (Ac-[Chg]V[Hyp]([CO-X3])[Ac3c(1R,2S-2-vinyl)]-OH)
IC50 [1]: 735 nM

CC(C)(C)OC(=O)N[C@H]1CCCCC/C=C\[C@@H]2C[C@@]2(C(=O)NS(=O)(=O)N2CCOCC2)NC(=O)[C@@H]2C[C@@H](OC(=O)N3Cc4ccccc4C3)CN2C1=O
EC50 (Hepatitis C virus): 52 nM | IC50 [1]: 4.4 nM

CC(C)(C)OC(=O)N[C@H]1CCNCC/C=C\[C@@H]2C[C@@]2(C(=O)NS(=O)(=O)C2CC2)NC(=O)[C@@H]2C[C@@H](OC(=O)N3Cc4cccc(F)c4C3)CN2C1=O
EC50 (Hepatitis C virus): 1830 nM | IC50 [1]: 9.7 nM

COc1ccc(S(=O)(=O)NC(=O)[C@@]23C[C@H]2/C=C\CCCCC[C@H](NC(=O)OC(C)(C)C)C(=O)N2C[C@H](OC(=O)N4Cc5ccccc5C4)C[C@H]2C(=O)N3)cc1
EC50 (Hepatitis C virus): 10 nM | IC50 [1]: 4.1 nM

CC(C)(C)OC(=O)N[C@H]1CCCCC/C=C\[C@@H]2C[C@@]2(C(=O)NS(=O)(=O)c2ccc(Cl)cc2)NC(=O)[C@@H]2C[C@@H](OC(=O)N3Cc4ccccc4C3)CN2C1=O
EC50 (Hepatitis C virus): 58 nM | IC50 [1]: 3 nM

C=C[C@@H]1C[C@]1(NC(=O)[C@@H]1C[C@@H](OC(=O)N2CCCCC2)CN1C(=O)[C@@H](NC(=O)[C@@H](NC(C)=O)C1CCCCC1)C(C)C)C(=O)O (Ac-[Chg]V[Hyp]([CO-Piperidide])[Ac3c(1R,2S-2-vinyl)]-OH)
IC50 [1]: 4290 nM

CC(C)(C)OC(=O)N[C@H]1CCCCC/C=C\[C@@H]2C[C@@]2(C(=O)NS(=O)(=O)C2CC2)NC(=O)[C@@H]2C[C@@H](OC(=O)N3Cc4ccc(C(F)(F)F)cc4C3)CN2C1=O
EC50 (Hepatitis C virus): 20 nM | IC50 [1]: 21 nM

N[C@H]1CCCCC/C=C\[C@@H]2C[C@@]2(C(=O)NS(=O)(=O)C2CC2)NC(=O)[C@@H]2C[C@@H](OC(=O)N3Cc4cccc(F)c4C3)CN2C1=O
EC50 (Hepatitis C virus): 3050 nM | IC50 [1]: 20 nM

COCC1(S(=O)(=O)NC(=O)[C@@]23C[C@H]2/C=C\CCCCC[C@H](NC(=O)OC(C)(C)C)C(=O)N2C[C@H](OC(=O)N4Cc5ccccc5C4)C[C@H]2C(=O)N3)CC1
EC50 (Hepatitis C virus): 13 nM | IC50 [1]: 7.7 nM

CN1CCN(S(=O)(=O)NC(=O)[C@@]23C[C@H]2/C=C\CCCCC[C@H](NC(=O)OC(C)(C)C)C(=O)N2C[C@H](OC(=O)N4Cc5ccccc5C4)C[C@H]2C(=O)N3)CC1
EC50 (Hepatitis C virus): 46 nM | IC50 [1]: 17 nM

CC(C)(C)OC(=O)N[C@H]1CCCCC/C=C\[C@@H]2C[C@@]2(C(=O)NS(=O)(=O)NC2CC2)NC(=O)[C@@H]2C[C@@H](OC(=O)N3Cc4ccccc4C3)CN2C1=O
EC50 (Hepatitis C virus): 32 nM | IC50 [1]: 4.2 nM

CC(C)(C)OC(=O)N[C@H]1CCCCCCC[C@@H]2C[C@@]2(C(=O)NS(=O)(=O)C2CC2)NC(=O)[C@@H]2C[C@@H](OC(=O)N3Cc4cccc(F)c4C3)CN2C1=O
EC50 (Hepatitis C virus): 5.8 nM | IC50 [1]: 0.7 nM

CC(C)(C)OC(=O)N[C@H]1CCCCC/C=C\[C@@H]2C[C@@]2(C(=O)NS(=O)(=O)C2CC2)NC(=O)[C@@H]2C[C@@H](OC(=O)N3Cc4c(F)ccc(F)c4C3)CN2C1=O
EC50 (Hepatitis C virus): 5.1 nM | IC50 [1]: 0.7 nM

CC(C)(C)OC(=O)N[C@H]1CCCCC/C=C\[C@@H]2C[C@@]2(C(=O)NS(=O)(=O)C2CC2)NC(=O)[C@@H]2C[C@@H](OC(=O)N3CCc4cccc(F)c4C3)CN2C1=O
EC50 (Hepatitis C virus): 12 nM | IC50 [1]: 1.1 nM

CC(C)(C)OC(=O)N[C@H]1CCCC(F)(F)CCC[C@@H]2C[C@@]2(C(=O)NS(=O)(=O)C2CC2)NC(=O)[C@@H]2C[C@@H](OC(=O)N3Cc4cccc(F)c4C3)CN2C1=O
EC50 (Hepatitis C virus): 46 nM | IC50 [1]: 1.3 nM

CC(C)(C)OC(=O)N[C@H]1CCCCC/C=C\[C@@H]2C[C@@]2(C(=O)NS(=O)(=O)N2CCC2)NC(=O)[C@@H]2C[C@@H](OC(=O)N3Cc4ccccc4C3)CN2C1=O
EC50 (Hepatitis C virus): 6.5 nM | IC50 [1]: 2.4 nM

C=C[C@@H]1C[C@]1(NC(=O)[C@@H]1C[C@@H](OC(=O)Nc2cccc3ccccc23)CN1C(=O)[C@@H](NC(=O)[C@@H](NC(C)=O)C1CCCCC1)C(C)C)C(=O)O (Ac-[Chg]V[Hyp]([CO-NH(1-naphthyl)])[Ac3c(1R,2S-2-vinyl)]-OH)
IC50 [1]: 818 nM

C=C[C@@H]1C[C@]1(NC(=O)[C@@H]1C[C@@H](OC(=O)NCc2cccc3ccccc23)CN1C(=O)[C@@H](NC(=O)[C@@H](NC(C)=O)C1CCCCC1)C(C)C)C(=O)O (Ac-[Chg]V[Hyp]([CO-NH(1-naphthylmethyl)])[Ac3c(1R,2S-2-vinyl)]-OH)
IC50 [1]: 835 nM

C=C[C@@H]1C[C@]1(NC(=O)[C@@H]1C[C@@H](OC(=O)N2CCOC(c3ccccc3)C2)CN1C(=O)[C@@H](NC(=O)[C@@H](NC(C)=O)C1CCCCC1)C(C)C)C(=O)O (stereo partly drawn) (Ac-[Chg]V[Hyp]([CO-X2])[Ac3c(1R,2S-2-vinyl)]-OH)
IC50 [1]: 4770 nM

C=C[C@@H]1C[C@]1(NC(=O)[C@@H]1C[C@@H](OC(=O)N2CCOCC2)CN1C(=O)[C@@H](NC(=O)[C@@H](NC(C)=O)C1CCCCC1)C(C)C)C(=O)O (Ac-[Chg]V[Hyp]([CO-Morpholide])[Ac3c(1R,2S-2-vinyl)]-OH)
IC50 [1]: 47100 nM

C=C[C@@H]1C[C@]1(NC(=O)[C@@H]1C[C@@H](OC(=O)N2CCOCC2c2ccccc2)CN1C(=O)[C@@H](NC(=O)[C@@H](NC(C)=O)C1CCCCC1)C(C)C)C(=O)O (stereo partly drawn) (Ac-[Chg]V[Hyp]([CO-X4])[Ac3c(1R,2S-2-vinyl)]-OH)
IC50 [1]: 5500 nM

C=C[C@@H]1C[C@]1(NC(=O)[C@@H]1C[C@@H](OC(=O)N2CCc3ccccc32)CN1C(=O)[C@@H](NC(=O)[C@@H](NC(C)=O)C1CCCCC1)C(C)C)C(=O)O (Ac-[Chg]V[Hyp]([CO-X1])[Ac3c(1R,2S-2-vinyl)]-OH)
IC50 [1]: 200 nM
